Patent publication US11124515B2, “Adenosine receptor antagonists and uses thereof” (Teon Therapeutics, Inc., priority 2018, dated 2021)

Experiment: Pharmacokinetic study in Sprague Dawley rats, single oral dose, plasma LC/MS/MS
Assay type: in vivo
Conditions: suspension in 0.5% methylcellulose in water
Protocol: Pharmacokinetic studies were carried out in Sprague Dawley rats. Exemplary compounds were administered orally by gavage to groups of three rats using a single oral dose of 5 mg/kg. Each oral dose was prepared as a suspension in 0.5% methylcellulose in water. Blood samples were obtained serially from each rat at 0, 15, 30 min, and then 1, 2, 4, 8, and 24 hrs post dose.
Concentrations of an administered compound and the corresponding metabolite (Compound 1) in rat plasma were determined by a HPLC tandem mass spectrometric (LC/MS/MS) method. 50 μL Plasma PPT by ISTD in MeOH/Acetonitrile (1:1, v/v). 200 μL of 5 ng/mL Terfenadine and Buspirone was added to in MeOH/Acetonitrile (1:1, v/v) and mixed well. […]
Quantification of compounds were achieved by mass spectrometry using Multiple Reaction Monitoring (MRM) mode, monitoring the transitions specific to each exemplary compound and 447.34>405.20 for Compound 1. The quantification limit of the assay was 10 ng/mL for Compound 1.
Non-compartmental pharmacokinetic parameters were determined using a commercial program WinNonLin Professional, Version 8.0 (Pharsight, Mountain View, Calif.). […]
For oral administration, t½ (hr), tmax (hr), Cmax (ng/mL), AUClast (hr*ng/mL), AUCInf (hr*ng/mL), AUC Extr (%), MRTInf (hr), Cmax Ratio (Parent/Pro), AUClast Ratio (Parent/Pro) were determined.

CCCn1c(=O)c2[nH]c(-c3cnn(Cc4cccc(C(F)(F)F)c4)c3)nc2n(CC)c1=O [Compound 1, 8-(1-(3-(Trifluoromethyl)benzyl)-1H-pyrazol-4-yl)-3-ethyl-1-propyl-1H-purine-2,6(3H,7H)-dione]
AUC(0-t) (rat, Compound 1, single oral dose of 5 mg/kg, read-out: AUC (AUClast)): < 30000 ng·h/mL

CCCC(=O)OCn1c(-c2cnn(Cc3cccc(C(F)(F)F)c3)c2)nc2c1c(=O)n(CCC)c(=O)n2CC [Compound E, (3-ethyl-2,6-dioxo-1-propyl-8-(1-(3-(trifluoromethyl)benzyl)-1H-pyrazol-4-yl)-1,2,3,6-tetrahydro-7H-purin-7-yl)methyl butyrate]
AUC (AUClast) (compounds of Formula (B), single oral dose of 5 mg/kg): α or β
